Experimental findings from patent publication US20230066011A1, “PYRROLOPYRIMIDINE DERIVATIVE, AND PHARMACEUTICAL COMPOSITION FOR PREVENTING OR TREATING PROTEIN KINASE-RELATED DISEASE COMPRISING SAME AS ACTIVE INGREDIENT” (VORONOI CO., LTD., priority 2019, published 2023) are described below.

pIC50: −log10 of the molar value.

For orientation: pIC50 means the IC50 on a negative log10 scale, so that one unit is a factor of ten. By inhibition is commonly meant the relative decrease from the control value, in per cent. Broadly, the GI50 is the concentration giving 50% growth inhibition. A lower GI50 goes with more potent growth inhibition.

For one experiment, the target named is T1, human GST-DYRK1A (Homo sapiens, UniProt Q13627).
T1 construct: purified human GST-DYRK1A (full length, Thermo Scientifics) enzyme; purchased Thermo Scientifics
The experiment can be described thus: GST-DYRK1A enzyme inhibition, ADP-Glo kinase assay. The class given is biochemical. The settings on record: ATP 10 μM, GST-DYRK1A full length, read-out: DYRK1 IC50. The method, boiled down: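 Full-length human GST-DYRK1A (10 ng) with 10 μM ATP and specific substrate in 40 mM Tris-HCl pH 7.4, 20 mM MgCl2, 0.5 mg/mL BSA, 50 μM DTT, 1 h at 25 °C. ADP formation read by ADP-Glo luminescence relative to solvent control; IC50 from three data sets.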
On the technique in general: In ADP-Glo the light output rises with the ADP produced.

The next experiment has as its target T2, human GST-CLK1 (Homo sapiens, UniProt P49759).
T2 construct: purified human GST-CLK1 (129-end, SignalChem) enzyme; purchased SignalChem
Description: GST-CLK1 enzyme inhibition, ADP-Glo kinase assay. The format is biochemical. The settings on record: ATP 10 μM, GST-CLK1 129-end. The method, boiled down: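 Human GST-CLK1 (129-end, 3 ng) reacted with substrate and 10 μM ATP for 1 h at 25° C in 40 mM Tris-HCl pH 7.4, 20 mM MgCl2, 0.5 mg/mL BSA, 50 μM DTT. ADP-Glo luminescence was normalised to solvent control; IC50 (nM) from 3 data sets.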

The target in the next experiment is LRRK2 (G2019S) (Homo sapiens, UniProt Q5S007, G2019S). The experiment can be described thus: LRRK2 G2019S enzyme inhibition, ADP-Glo kinase assay. Also on record: purchased SignalChem L10-12GG. The format is biochemical. The following applies: ATP 25 μM. The method, boiled down: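 Purified human LRRK2 G2019S (16 ng) with 25 μM ATP and 0.2 μg substrate, 2 h at 25° C. in Tris-HCl pH 7.4, MgCl2, BSA, DTT buffer; compounds at 12 final concentrations, 50 μM down to 0.000001024 μM. ADP-Glo luminescence versus solvent control gave IC50.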
Sequence of LRRK2 (G2019S) (Q5S007 970-2527 G2019S limits assumed): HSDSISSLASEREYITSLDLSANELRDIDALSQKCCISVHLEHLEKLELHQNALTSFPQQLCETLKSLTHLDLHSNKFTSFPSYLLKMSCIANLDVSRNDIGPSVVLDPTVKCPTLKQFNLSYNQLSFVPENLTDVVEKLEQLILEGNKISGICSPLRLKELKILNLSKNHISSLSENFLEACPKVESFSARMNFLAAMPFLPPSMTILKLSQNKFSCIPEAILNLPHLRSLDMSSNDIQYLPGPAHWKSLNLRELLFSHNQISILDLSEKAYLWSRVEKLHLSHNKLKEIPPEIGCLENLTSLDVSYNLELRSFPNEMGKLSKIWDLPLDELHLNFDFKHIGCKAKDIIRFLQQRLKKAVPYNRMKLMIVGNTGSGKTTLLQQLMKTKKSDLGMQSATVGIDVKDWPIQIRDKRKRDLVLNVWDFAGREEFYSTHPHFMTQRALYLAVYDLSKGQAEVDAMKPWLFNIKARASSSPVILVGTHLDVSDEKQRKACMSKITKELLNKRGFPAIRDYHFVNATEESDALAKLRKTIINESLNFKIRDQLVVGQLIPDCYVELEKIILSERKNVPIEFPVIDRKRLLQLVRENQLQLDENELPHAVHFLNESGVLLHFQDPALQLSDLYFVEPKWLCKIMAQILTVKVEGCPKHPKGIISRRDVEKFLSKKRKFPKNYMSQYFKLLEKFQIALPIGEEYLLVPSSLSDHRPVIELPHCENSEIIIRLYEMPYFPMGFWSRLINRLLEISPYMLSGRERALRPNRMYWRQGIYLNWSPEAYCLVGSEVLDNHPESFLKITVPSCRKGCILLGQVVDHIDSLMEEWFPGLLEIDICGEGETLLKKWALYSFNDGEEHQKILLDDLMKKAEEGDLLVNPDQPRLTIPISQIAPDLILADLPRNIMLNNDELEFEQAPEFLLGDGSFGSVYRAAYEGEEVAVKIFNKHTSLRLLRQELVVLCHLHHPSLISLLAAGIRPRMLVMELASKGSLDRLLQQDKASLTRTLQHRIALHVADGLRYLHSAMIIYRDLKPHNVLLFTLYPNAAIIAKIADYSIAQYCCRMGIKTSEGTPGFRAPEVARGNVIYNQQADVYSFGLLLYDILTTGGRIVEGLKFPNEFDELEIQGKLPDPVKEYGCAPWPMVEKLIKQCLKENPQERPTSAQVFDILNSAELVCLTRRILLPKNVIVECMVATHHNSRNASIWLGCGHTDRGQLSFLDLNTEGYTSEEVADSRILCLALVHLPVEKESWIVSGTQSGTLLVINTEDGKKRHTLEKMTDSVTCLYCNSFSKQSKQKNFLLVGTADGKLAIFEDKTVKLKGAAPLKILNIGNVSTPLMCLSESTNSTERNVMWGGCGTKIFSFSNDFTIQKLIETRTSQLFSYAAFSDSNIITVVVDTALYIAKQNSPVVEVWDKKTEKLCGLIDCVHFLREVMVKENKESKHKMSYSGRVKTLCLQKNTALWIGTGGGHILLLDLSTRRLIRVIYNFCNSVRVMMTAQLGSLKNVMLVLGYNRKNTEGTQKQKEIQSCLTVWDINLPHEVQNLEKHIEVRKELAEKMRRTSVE

A further experiment concerns human DYRK1A and tau. The experiment can be described thus: Inhibition of tau phosphorylation, ClariCELL Kinase Cell-Based Assay, HEK 293 cells expressing human DYRK1A and tau. The following applies: for inhibition at 1 µM: HEK293, read-out: % inhibition at 1 uM, tau phosphorylation, compound 1 uM; for inhibition at 0.25 µM / inhibition at 0.5 µM: HEK293, tau phosphorylation; for inhibition at 0.25 µM: compound 0.25 uM; for inhibition at 0.5 µM: compound 0.5 uM. How it is done:
An inhibitory effect on tau phosphorylation was determined using the ClariCELL™ Kinase Cell-Based Assay service (commercially available from CamaBio USA, Inc.). Human embryonic kidney (HEK 293) cells temporarily expressing human DYRK1A and tau were exposed to the compound, and then lysed to release cell proteins. In this case, the released tau was captured on a plate, and a degree of phosphorylation was quantified by ELISA using a tau phosphorylation-specific antibody.

The next experiment addresses LRRK2 (Homo sapiens, UniProt Q5S007). The experiment can be described thus: LRRK2 enzyme inhibition, ADP-Glo kinase assay. The format is biochemical. Also on record: purchased Invitrogen PR8604B. The settings on record: ATP 10 μM. The essentials:
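Purified human LRRK2 (25 ng) with 10 μM ATP and 0.2 μg substrate in 40 mM Tris-HCl pH 7.4, 20 mM MgCl2, 0.5 mg/mL BSA, 50 μM DTT, 2 h at 25° C. ADP-Glo luminescence; 12-point compound series from 50 μM final; IC50 relative to solvent control.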

Another experiment concerns MDA-MB-468 cell line. Description: Inhibition of proliferation of MDA-MB-468 cancer cells (Cell Titer-Glo). The settings on record: Homo sapiens, MDA-MB-468, 72 hours. The class given is cell-based. How it is done:
(§1) To evaluate an inhibitory effect on the proliferation of cancer cells, each of an MDA-MB-231 cell line (Korean Cell Line Bank #30026) and an MDA-MB-468 cell line as triple-negative breast cancer cell lines, and SHP-77 (ATCC #CRL-2195) as a small-cell lung cancer cell line was cultured in DMEM (HyClone #SH30243) or an RPMI medium (HyClone #SH3027.01) to analyze a cell growth rate. More specifically, a cell line was plated on a 96-well flat bottom plate (Corning #3903) at a density of 2,000 cells/100 μL per well, and then treated with 11 concentrations of the Example compound, a solution of which was diluted 3-fold so that a final concentration of the compound was 10.000000, 3.333333, 1.111111, 0.370370, 0.123457, 0.041152, 0.013717, 0.004572, 0.001524, 0.000508, and 0.000169 μM. After 72 hours, each of the culture media was treated with 100 μL of Cell Titer-Glo (Promega G7573), and then cultured at room temperature for 10 minutes. Then, a degree of luminescence was measured using a microplate reader. A GI50 value was calculated from the measured degree of luminescence using Prism (Version 8.2 GraphPad) software.

In a further experiment the test system is MDA-MB-231 cell line. Description: Inhibition of proliferation of MDA-MB-231 cancer cells (Cell Titer-Glo). The settings on record: Homo sapiens, 72 hours. The class given is cell-based. How it is done: as §1

T2 sequence (P49759 129-484 limits assumed): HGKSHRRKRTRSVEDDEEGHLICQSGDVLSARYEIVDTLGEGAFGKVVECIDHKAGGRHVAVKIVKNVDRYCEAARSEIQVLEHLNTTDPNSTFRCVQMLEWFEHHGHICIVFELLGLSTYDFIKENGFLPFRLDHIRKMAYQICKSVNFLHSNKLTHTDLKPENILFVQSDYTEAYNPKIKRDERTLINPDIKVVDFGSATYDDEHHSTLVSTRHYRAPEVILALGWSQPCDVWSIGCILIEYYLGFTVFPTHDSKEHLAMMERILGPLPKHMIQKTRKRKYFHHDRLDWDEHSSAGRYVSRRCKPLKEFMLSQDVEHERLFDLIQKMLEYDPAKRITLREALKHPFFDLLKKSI
Sequence of LRRK2 (Q5S007 970-2527 limits assumed): as the sequence (Q5S007 970-2527 G2019S limits assumed) above, with S1050G counted along it

For `CCCCNc1nc(Nc2ccc(C(=O)N3CCC(N4CCOCC4)CC3)c3c2OCC3)nc2[nH]cc(C(F)(F)F)c12` [Example 466, (7-((4-(butylamino)-5-(trifluoromethyl)-7H-pyrrolo[2,3-d]pyrimidin-2-yl)amino)-2,3-dihydrobenzo-furan-4-yl)(4-morpholino-piperidin-1-yl)methanone], the pIC50 at human GST-DYRK1A is 6.00 to 6.52. At human GST-CLK1, this molecule had a pIC50 of 6.00 to 6.52. Besides, the pIC50 on LRRK2 (G2019S) is more than 7.00. For the same molecule, in the experiment on human DYRK1A and tau, the inhibition at 1 µM was determined as 71.3%, the inhibition at 0.25 µM was 9.5% and the inhibition at 0.5 µM worked out at 39.2%.

As for `CCNc1nc(Nc2ccc(P3(=O)CCN(C4CCOCC4)CC3)cc2OC)nc2[nH]cc(C(F)(F)F)c12` [Example 439, 4-(4-((4-(ethylamino)-5-(trifluoromethyl)-7H-pyrrolo[2,3-d]pyrimidin-2-yl)amino)-3-methoxyphenyl)-1-(tetrahydro-2H-pyran-4-yl)-1,4-azaphosphinane 4-oxide], the pIC50 on LRRK2, at human GST-DYRK1A and against human GST-CLK1 was more than 7.00 each time. In addition, the inhibition at 1 µM with human DYRK1A and tau turned out to be 55.7%. Besides, the inhibition at 0.25 µM with human DYRK1A and tau was found to be 18.8%. Also, the inhibition at 0.5 µM in the experiment on human DYRK1A and tau was determined as 43.6%.

In the case of `O=C(c1ccc(Nc2nc(NC3CCCC3)c3cc[nH]c3n2)c2c1CCO2)N1CCC(N2CCOCC2)CC1` [Example 241, (7-((4-(cyclopentylamino)-7H-pyrrolo[2,3-d]pyrimidin-2-yl)amino)-2,3-dihydrobenzofuran-4-yl)(4-morpholinopiperidin-1-yl)methanone], the pIC50 at human GST-DYRK1A and at human GST-CLK1 was 6.00 to 6.52 throughout. Besides, the GI50 with MDA-MB-468 cell line fell in the range of 301 to 1000 nM.

Turning to `O=C(c1ccc(Nc2nc(NCC3CC3)c3c(C(F)(F)F)c[nH]c3n2)c2c1OCCO2)N1CCN(C2COC2)CC1` [Example 422, (8-((4-((cyclo-propylmeth-yl)amino)-5-(trifluoromethyl)-7H-pyrrolo[2,3-d]pyrimidin-2-yl)amino)-2,3-dihydrobenzo[b] [1,4]dioxin-5-yl) (4-(oxetan-3-yl)piperazin-1-yl)methanone], the pIC50 at human GST-DYRK1A was 6.00 to 6.52; against human GST-CLK1, more than 7.00; against LRRK2 (G2019S) it was more than 7.00. Moreover, in the experiment on human DYRK1A and tau, the inhibition at 1 µM was determined as 33.2%. Besides, the inhibition at 0.25 µM with human DYRK1A and tau was 7.4%. The inhibition at 0.5 µM in the experiment with human DYRK1A and tau was 19.6%.

On to `CC[C@H](C)Nc1nc(Nc2ccc(C(=O)N3CCC(N4CCOCC4)CC3)c3c2OCC3)nc2[nH]cc(C#N)c12` [Example 357, (S)-4-(sec-butylamino)-2-((4-(4-morpholino-piperidine-1-carbonyl)-2,3-dihydro-benzofuran-7-yl)amino)-7H-pyrrolo[2,3-d]pyrimidine-5-carbonitrile], for which, at human GST-DYRK1A, the pIC50 is 6.00 to 6.52. Moreover, on human GST-CLK1, the pIC50 was more than 7.00. Moreover, at LRRK2 (G2019S), the pIC50 is more than 7.00. Besides, in the experiment on human DYRK1A and tau, the inhibition at 1 µM is 35.4%, the inhibition at 0.25 µM is 19.7% and the inhibition at 0.5 µM came out at 33.1%.

As to `O=C(c1ccc(Nc2nc(NCC3CCCC3)c3c(C(F)(F)F)c[nH]c3n2)c2c1CCO2)N1CCC(N2CCOCC2)CC1` [Example 464, (7-((4-((cyclo-pentylmeth-yl)amino)-5-(trifluoromethyl)-7H-pyrrolo[2,3-d]pyrimidin-2-yl)amino)-2,3-dihydrobenzo-furan-4-yl)(4-morpholino-piperidin-1-yl)methanone], the results for the pIC50 on human GST-DYRK1A, at human GST-CLK1 and at LRRK2 (G2019S) were 6.00 to 6.52, 6.00 to 6.52 and more than 7.00, respectively. Further, the inhibition at 1 µM with human DYRK1A and tau was determined as 44.2%. In addition, in the experiment with human DYRK1A and tau, the inhibition at 0.25 µM turned out to be 11.5%. The inhibition at 0.5 µM in the experiment on human DYRK1A and tau stood at 12.4%.

With `COCC(C)(C)Nc1nc(Nc2ccc(S(=O)(=O)N3CCC(N4CCOCC4)CC3)cc2OC)nc2[nH]cc(C(F)(F)F)c12` [Example 176, N^4-(1-methoxy-2-methylpropan-2-yl)-N^2-(2-methoxy-4-((4-morpholinopiperidin-1-yl)sulfonyl)phenyl)-5-(trifluoromethyl)-7H-pyrrolo[2,3-d]pyrimidine-2,4-diamine], the pIC50 on LRRK2, on human GST-DYRK1A, against human GST-CLK1 and against LRRK2 (G2019S) was 6.00 to 6.52 throughout. Moreover, the GI50 in the experiment with MDA-MB-231 cell line fell in the range of 101 to 300 nM.

For the molecule `N#Cc1c[nH]c2nc(Nc3ccc(C(=O)N4CCC(N5CCOCC5)CC4)c4c3OCC4)nc(NC3CCCCC3)c12` [Example 322, 4-(cyclo-hexylamino)-2-((4-(4-morpholino-piperidine-1-carbonyl)-2,3-dihydro-benzofuran-7-yl)amino)-7H-pyrrolo[2,3-d]pyrimidine-5-carbonitirle], the pIC50 against LRRK2, on human GST-DYRK1A, at human GST-CLK1 and on LRRK2 (G2019S) was more than 7.00 throughout. In addition, in the experiment with human DYRK1A and tau, the inhibition at 1 µM is 64.3%. For the same molecule, the inhibition at 0.25 µM in the experiment on human DYRK1A and tau was -10.5%. For the same molecule, the inhibition at 0.5 µM in the experiment with human DYRK1A and tau came to 34.2%.

On to `CNc1nc(Nc2ccc(C(=O)N3CCOCC3)c3c2OCC3)nc2[nH]cc(C(F)(F)F)c12` [Example 218, (7-((4-(methylamino)-5-(trifluoromethyl)-7H-pyrrolo[2,3-d]pyrimidin-2-yl)amino)-2,3-dihydrobenzofuran-4-yl)(morpholino)methanone], for which the pIC50 at human GST-DYRK1A was more than 7.00. The pIC50 against human GST-CLK1 is more than 7.00. Moreover, in the experiment on human DYRK1A and tau, the inhibition at 1 µM is 99.4%, the inhibition at 0.25 µM turned out to be 57.7% and the inhibition at 0.5 µM worked out at 84.3%.

Regarding `CC(C)Nc1nc(Nc2ccc(C(=O)N3CCN(C4COC4)CC3)c3c2OCCO3)nc2[nH]cc(C(F)(F)F)c12` [Example 441, (8-((4-(isopropylamino)-5-(trifluoromethyl)-7H-pyrrolo[2,3-d]pyrimidin-2-yl)amino)-2,3-dihydrobenzo[b] [1,4]dioxin-5-yl) (4-(oxetan-3-yl)piperazin-1-yl)methanone], the pIC50 at human GST-DYRK1A is 6.52 to 7.00. Besides, on human GST-CLK1, the pIC50 is more than 7.00. In addition, in the experiment on human DYRK1A and tau, the inhibition at 1 µM stood at 75.5%, the inhibition at 0.25 µM was 19.6% and the inhibition at 0.5 µM amounted to 57.4%.

Consider `N#Cc1c[nH]c2nc(Nc3ccc(C(=O)N4CCC(N5CCOCC5)CC4)c4c3OCC4)nc(NCC3CCCC3)c12` [Example 343, 4-((cyclo-pentylmeth-yl)amino)-2-((4-(4-morpholinopiperidine-- 1-carbonyl)-2,3-dihydro-benzofuran-7-yl)amino)-7H-pyrrolo[2,3-d]pyrimidine-5-carbonitrile], for which the pIC50 at human GST-DYRK1A was 6.00 to 6.52. The pIC50 at human GST-CLK1 is 6.00 to 6.52. This molecule also gave a pIC50 on LRRK2 (G2019S) of more than 7.00. For the same molecule, in the experiment with human DYRK1A and tau, the inhibition at 1 µM was determined as 52%, the inhibition at 0.25 µM is -44.3% and the inhibition at 0.5 µM was 16.7%.

Take `COc1cc(P2(=O)CCN(C3CC3)CC2)ccc1Nc1nc(NC(C)C)c2c(C(F)(F)F)c[nH]c2n1` [Example 440, 1-cyclopropyl-4-(4-((4-(isopropylamino)-5-(trifluoromethyl)-7H-pyrrolo[2,3-d]pyrimidin-2-yl)amino)-3-methoxyphenyl)-1,4-azaphosphinane 4-oxide]: the pIC50 at human GST-DYRK1A is 6.00 to 6.52. Further, the pIC50 at human GST-CLK1 was 6.00 to 6.52. In addition, the pIC50 at LRRK2 (G2019S) was more than 7.00. Further, in the experiment with human DYRK1A and tau, the inhibition at 1 µM came out at 36.3%, the inhibition at 0.25 µM was determined as 9.6% and the inhibition at 0.5 µM was found to be 27.8%.
